The results in this text go back to patent US20260069523A1, “SKIN CARE COMPOSITION AND USE THEREOF” (NANJING NUTRABUILDING BIO-TECH CO., LTD., priority 2023, published 2026).

One assay relates to IL-8. Nature of the assay: Anti-inflammatory test: IL-8 in UVB-stimulated keratinocytes. The class given is cell-based, human. As to conditions: UV-B 50 mJ/cm^2 irradiated keratinocytes, 24 h, supernatant, maximum non-cytotoxic dose (combinations: half dose each). How it is done:
(§1) Cell culture: HaCat, a normal human epidermal keratinocyte (NHEK) cell line, was purchased from Wuhan Saios Biotechnology Co., Ltd. The cells were stored in a humid environment (95% air and 5% carbon dioxide at 37° C.) and cultured in DMEM supplemented with 10% heat inactivated FBS, 2 mM glutamine and 1% penicillin/streptomycin. The culture was harvested and the cell morphology was examined by phase contrast microscope. Cell suspension was counted with a hemocytometer (Marienfeld, Germany) to monitor the number of cells.
(§2) UVB stimulation: Keratinocytes were inoculated into a 12-well plate (50,000 cells/mL) and cultured to a confluency of ˜80%. The cells were washed once with phosphate buffered saline (PBS) at room temperature, 0.5 mL PBS was added to the cells, and then irradiated with ultraviolet rays. The cells were exposed to 50 mJ/cm^2 UV-B (Philips, 311 nm) for 2 minutes. […]
(§3) Detection of inflammatory factors: the standard curve of each cytokine (TNF-α, IL-8, IL-6) were generated by using the reference cytokine samples provided by the kit. […] The absorbance (OD value) was measured by microplate reader at the wavelength of 450 nm, and the concentration was calculated according to the standard curve.

In the next assay the test system is tyrosinase. The experiment in a line: Whitening test: inhibition of tyrosinase. As to conditions: 1 mg/mL sample solutions (combinations mixed 1:1 or 1:1:1), tyrosine substrate, 30° C., absorbance 475 nm.
The next assay concerns IL-6. The experiment in a line: Anti-inflammatory test: IL-6 in UVB-stimulated keratinocytes. As to conditions: UV-B 50 mJ/cm^2 irradiated keratinocytes, 24 h, supernatant, maximum non-cytotoxic dose (combinations: half dose each). The class given is cell-based, human. How it is done: as §1, §2, §3
The next assay has as its system TNF-α. Nature of the assay: Anti-inflammatory test: TNF-α in UVB-stimulated keratinocytes. The class given is cell-based, human. To be noted: UV-B 50 mJ/cm^2 irradiated keratinocytes, 24 h, supernatant, maximum non-cytotoxic dose (combinations: half dose each). On the procedure:
as §1, §2, §3

Regarding `C[N+](C)(C)[C@@H](Cc1c[nH]c(=S)[nH]1)C(=O)[O-]` [EGT, ergothioneine], in the assay on IL-8, the “content of IL-8” value was 23 pg/mL. Also, the “inhibition rate on tyrosinase” value with tyrosinase was determined as 68%. Also, the “content of IL-6” value with IL-6 was 28 pg/mL. Further, the “content of TNF-α” value with TNF-α is “about 95 pg/ml”.

`COc1cc(CCC(=O)CC(=O)CCc2ccc(O)c(OC)c2)ccc1O` [THC, tetrahydrocurcumin]: the “content of IL-8” value in the assay with IL-8 turned out to be 25 pg/mL. Moreover, the “content of IL-6” value in the assay with IL-6 amounted to 27 pg/mL. For the same molecule, the “content of TNF-α” value in the assay with TNF-α is given as “about 90 pg/ml”.
